Each structure is given as a SMILES string.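 Cultured in 96-well plates, cells were exposed to test compound for 48 hours across five concentrations. Abbreviation: GI50, concentration required for 50% inhibition of growth.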 Active and inactive are the calls of the source. No stated cut-off is given here; in the data, active = GI50 up to about 1.1 µM and inactive = higher.

Test systems include LOX IMVI; DU-145; UO-31; MCF7; HOP-92; SK-MEL-5; CAKI-1; HCT-116; T47D; OVCAR-5; NCI-H226; COLO 205; SF-295; U-251; SNB-75; SK-MEL-28; 786-0; SK-MEL-2; SNB-19.
Test in all cases: NCI anticancer screen, dose series, 48 h

`N#CCC1C2CC3C(C2=O)C13` (stereo not drawn): the GI50 in the experiment with LOX IMVI, in the experiment on DU-145, in the experiment on UO-31, in the experiment on MCF7, in the experiment with HOP-92 and in the experiment on SK-MEL-5 was > 100 µM (inactive) each time. In addition, the GI50 in the experiment on CAKI-1, in the experiment with HCT-116, with T47D, in the experiment with OVCAR-5, in the experiment on NCI-H226 and in the experiment with COLO 205 was > 100 µM (inactive) throughout. In addition, the GI50 with SF-295, in the experiment with U-251, in the experiment on SNB-75, in the experiment on SK-MEL-28, in the experiment on 786-0 and with SK-MEL-2 was > 100 µM (inactive) throughout. In the experiment with SNB-19, the GI50 was > 100 µM (inactive).
As to `O=C(c1ccccc1)n1cc(-c2ccccc2)c2c(=O)nc[nH]c21`, the GI50 in the experiment on LOX IMVI, with DU-145, with UO-31, with MCF7, in the experiment on HOP-92 and with SK-MEL-5 was > 100 µM (inactive) each time. Also, the GI50 in the experiment with CAKI-1, with HCT-116, in the experiment on T47D, in the experiment with OVCAR-5, in the experiment on NCI-H226 and in the experiment on COLO 205 was > 100 µM (inactive) each time. Besides, the GI50 is > 100 µM (inactive) in the experiment on SF-295; > 100 µM (inactive) with U-251; 17.4 µM (inactive) in the experiment with SNB-75; > 100 µM (inactive) in the experiment on SK-MEL-28; > 100 µM (inactive) with 786-0; > 100 µM (inactive) in the experiment with SK-MEL-2. Moreover, in the experiment with SNB-19, the GI50 is > 100 µM (inactive).
Consider `CCCC[N+](CCCC)(CCCC)CCCC.O=S(=O)([O-])ON=C1c2ccccc2-c2ccccc21`, for which the GI50 is > 100 µM (inactive) in the experiment with LOX IMVI; > 100 µM (inactive) in the experiment on DU-145; > 100 µM (inactive) in the experiment with UO-31; > 100 µM (inactive) with MCF7; > 100 µM (inactive) in the experiment with HOP-92; 61.5 µM (inactive) in the experiment on SK-MEL-5. Besides, the GI50 with CAKI-1, in the experiment on HCT-116, in the experiment on T47D, with OVCAR-5, in the experiment with NCI-H226 and in the experiment with COLO 205 was > 100 µM (inactive) throughout. The GI50 in the experiment on SF-295, in the experiment with U-251, with SNB-75, in the experiment on SK-MEL-28, in the experiment on 786-0 and with SK-MEL-2 was > 100 µM (inactive) throughout. In addition, the GI50 in the experiment on SNB-19 is > 100 µM (inactive).
For the compound `CC1=NN(c2cccc(Cl)c2)C2(C1)SCC(=O)N2c1nc2ccccc2s1` (stereo not drawn), the GI50 in the experiment with LOX IMVI is 20.2 µM (inactive); with DU-145, 24.6 µM (inactive); in the experiment on UO-31, 21.1 µM (inactive); with MCF7, 25.6 µM (inactive); with HOP-92, 32.8 µM (inactive); in the experiment with SK-MEL-5 it was 17.5 µM (inactive). Also, the GI50 in the experiment with CAKI-1 is 32.6 µM (inactive); in the experiment with HCT-116, 17.9 µM (inactive); in the experiment with T47D it was 19.8 µM (inactive); in the experiment with OVCAR-5 it was 37 µM (inactive); in the experiment on NCI-H226, 11.6 µM (inactive); with COLO 205, 18.1 µM (inactive). In addition, the GI50 is 23.2 µM (inactive) with SF-295; 27 µM (inactive) in the experiment on U-251; 13.2 µM (inactive) in the experiment with SNB-75; 32.8 µM (inactive) in the experiment with SK-MEL-28; 21.8 µM (inactive) in the experiment with 786-0; 22.3 µM (inactive) with SK-MEL-2. Also, the GI50 with SNB-19 was 36 µM (inactive).
With `Cc1c2cccc-2ccc2c1[nH]c1ccc(Br)cc12`, the GI50 in the experiment on LOX IMVI is 4.44 µM (inactive); in the experiment on DU-145, 10.9 µM (inactive); in the experiment on UO-31 it was 4.65 µM (inactive); with MCF7 it was 4.06 µM (inactive); in the experiment with HOP-92, 3.61 µM (inactive); with SK-MEL-5 it was 3.9 µM (inactive). The GI50 in the experiment with CAKI-1 is 11.8 µM (inactive); with HCT-116, 4.85 µM (inactive); with T47D, 1.69 µM (inactive); with OVCAR-5, 3.94 µM (inactive); in the experiment with NCI-H226, 2.04 µM (inactive); in the experiment on COLO 205, 2.06 µM (inactive). For the same compound, the GI50 in the experiment with SF-295 was 4.23 µM (inactive); in the experiment on U-251, 3.21 µM (inactive); in the experiment with SNB-75 it was 2.21 µM (inactive); in the experiment on SK-MEL-28, 7.03 µM (inactive); in the experiment on 786-0, 14.3 µM (inactive); in the experiment on SK-MEL-2, 5.62 µM (inactive). Moreover, the GI50 in the experiment with SNB-19 was 7.64 µM (inactive).
Regarding `COc1cccc(C(=O)N[C@@H]2[C@H](O)[C@@H](CO)O[C@H]2n2cnc3c(N)ncnc32)c1`, the GI50 in the experiment with LOX IMVI, in the experiment on DU-145, in the experiment with UO-31, with MCF7, with HOP-92 and with SK-MEL-5 was > 100 µM (inactive) throughout. For the same compound, the GI50 in the experiment on CAKI-1, with HCT-116, with T47D, in the experiment with OVCAR-5, in the experiment with NCI-H226 and in the experiment with COLO 205 was > 100 µM (inactive) each time. The GI50 with SF-295, in the experiment on U-251, with SNB-75, in the experiment on SK-MEL-28, in the experiment on 786-0 and in the experiment on SK-MEL-2 was > 100 µM (inactive) throughout. Also, the GI50 in the experiment on SNB-19 was > 100 µM (inactive).
As for `COc1cc2c(/C=C3/C(=O)Nc4ccccc43)c(Cl)[nH]c2cc1C`, the GI50 with LOX IMVI is 0.0631 µM (active); in the experiment on DU-145 it was 0.0955 µM (active); in the experiment with UO-31, 0.0745 µM (active); in the experiment on MCF7 it was 0.0502 µM (active); in the experiment with HOP-92, 1.43 µM (inactive); in the experiment with SK-MEL-5 it was 0.0467 µM (active). Further, the GI50 in the experiment with CAKI-1 is 0.0689 µM (active); in the experiment on HCT-116 it was 0.0597 µM (active); in the experiment on T47D, 13.7 µM (inactive); with OVCAR-5, 0.129 µM (active); with NCI-H226, 0.373 µM (active); with COLO 205, 0.0552 µM (active). Moreover, the GI50 with SF-295 was 0.0252 µM (active); with U-251, 0.041 µM (active); with SNB-75, 0.192 µM (active); in the experiment on SK-MEL-28, 9.12 µM (inactive); with 786-0, 0.0605 µM (active); in the experiment on SK-MEL-2, 0.082 µM (active). Moreover, the GI50 in the experiment on SNB-19 was 0.0486 µM (active).
